According to BindingDB's records for doi:10.1016/s0960-894x(99)00095-5 (Warner-Lambert, 1999):

Target: Trypsin (Bos taurus)
Test: In vitro for inhibition of purified bovine trypsin.

SMILES	IC50 [µM]
CN(c1nc2ccccc2c(=O)o1)S(=O)(=O)c1ccc(Cl)cc1 [4-Chloro-N-methyl-N-(4-oxo-4H-benzo[d][1,3]oxazin-2-yl)-benzenesulfonamide]	1.3
CN(c1nc2ccccc2c(=O)o1)S(=O)(=O)c1ccc(Cl)c(Cl)c1 [3,4-Dichloro-N-methyl-N-(4-oxo-4H-benzo[d][1,3]oxazin-2-yl)-benzenesulfonamide]	8.3
Cc1ccc(S(=O)(=O)N(C)c2nc3ccccc3c(=O)o2)cc1 [4,N-Dimethyl-N-(4-oxo-4H-benzo[d][1,3]oxazin-2-yl)-benzenesulfonamide]	4.5

The next lines start with the values.

IC50 [µM]	SMILES
> 200	COc1ccc(S(=O)(=O)N(C)c2nc3ccccc3c(=O)s2)cc1 [4-Methoxy-N-methyl-N-(4-oxo-4H-benzo[d][1,3]thiazin-2-yl)-benzenesulfonamide]
> 100	CN(c1nc2ccccc2c(=O)o1)S(=O)(=O)c1ccc([N+](=O)[O-])cc1 [N-Methyl-4-nitro-N-(4-oxo-4H-benzo[d][1,3]oxazin-2-yl)-benzenesulfonamide]
5.83	CN(c1nc2ccccc2c(=O)o1)S(=O)(=O)c1ccc(C(C)(C)C)cc1 [4-tert-Butyl-N-methyl-N-(4-oxo-4H-benzo[d][1,3]oxazin-2-yl)-benzenesulfonamide]
